Assays:
[1] = system: SMN2 minigene mRNA (SMN2-A minigene) in HEK293H cells; assay: SMN2 minigene mRNA splicing RT-qPCR assay in cultured cells; assay type: cell-based, human; details: Homo sapiens, HEK293-H; concentration increasing full length SMN2 mRNA 1.5-fold relative to vehicle-treated cells; HEK293H cells with SMN2-A minigene, 24 hours, 7-point concentration data; read-out: EC1.5x for production of full length SMN2 mRNA
Procedure, shortened: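 EC1.5× values derive from a 24 h treatment of SMN2-A minigene HEK293H cells and GAPDH-normalized RT-qPCR of exon 7-included minigene mRNA relative to vehicle-treated cells.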

[2] = system: Smn protein in SMA patient fibroblast cells (GM03813); assay: Smn protein assay in cultured cells (SMN HTRF); assay type: cell-based, human; details: SMA patient fibroblast cells, 48 hours; for EC1.5x for Smn protein expression: 7-point concentration curve, SMN HTRF, concentration producing 1.5 times Smn protein vs DMSO vehicle control; for maximum fold (Fold) increase of Smn protein: 7-point concentration data, fold relative to vehicle control
Procedure, shortened: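 Cells were cultured 72 h, seeded at 5,000/well and dosed with seven concentrations (3.16-fold apart) for 48 h. HTRF on lysates, read at 665 and 620 nm, gave blank-corrected ΔF values relative to DMSO. Potency is reported as EC1.5×, efficacy as maximal fold Smn increase.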

| SMILES | melting point | EC (1.5-fold increase) [1] | EC1.5x for Smn protein expression [2] | maximum fold (Fold) increase of Smn protein [2] |
| --- | --- | --- | --- | --- |
| Cc1nc2ccc(-c3cc(=O)n4cc(N5CCNCC5)ccc4n3)cc2o1 [Compound 133, 2-(2-methyl-1,3-benzoxazol-6-yl)-7-(piperazin-1-yl)-4H-pyrido[1,2-a]pyrimidin-4-one] | 219 to 222 °C | < 0.1 µM | **** (an EC1.5x≤0.3 μM is indicated by four stars (****)) | **** (a fold increase between >1.5 and ≤1.65 is indicated by four stars (****)) |
| Cc1nc2cc(-c3cc(=O)n4cc(N5CCN[C@@H](C)C5)ccc4n3)ccc2s1 [Compound 135, 2-(2-methyl-1,3-benzothiazol-5-yl)-7-[(3S)-3-methylpiperazin-1-yl]-4H-pyrido[1,2-a]pyrimidin-4-one] | 174 to 180 °C | < 0.1 µM | **** (an EC1.5x≤0.3 μM is indicated by four stars (****)) | **** (a fold increase between >1.5 and ≤1.65 is indicated by four stars (****)) |
| Cc1nc2cc(-c3cc(=O)n4cc(N5CCNCC5)ccc4n3)ccc2s1 [Compound 136, 2-(2-methyl-1,3-benzothiazol-5-yl)-7-(piperazin-1-yl)-4H-pyrido[1,2-a]pyrimidin-4-one] | 228 to 230 °C | < 0.1 µM | **** (an EC1.5x≤0.3 μM is indicated by four stars (****)) | ***** (a fold increase >1.65 is indicated by five stars (*****)) |
| Cn1cc2cc(-c3cc(=O)n4cc(N5CCNCC5)ccc4n3)ccc2n1 [Compound 137, 2-(2-methyl-2H-indazol-5-yl)-7-(piperazin-1-yl)-4H-pyrido[1,2-a]pyrimidin-4-one] | 175 to 180 °C | 0.1 to 0.3 µM | *** (an EC1.5× between >0.3 μM and ≤1 μM is indicated by three stars (***)) | ***** (a fold increase >1.65 is indicated by five stars (*****)) |
| C[C@H]1CN(c2ccc3nc(-c4ccc5nn(C)cc5c4)cc(=O)n3c2)CCN1 [Compound 138, 2-(2-methyl-2H-indazol-5-yl)-7-[(3S)-3-methylpiperazin-1-yl]-4H-pyrido[1,2-a]pyrimidin-4-one] | 166 to 170 °C | 0.1 to 0.3 µM | *** (an EC1.5× between >0.3 μM and ≤1 μM is indicated by three stars (***)) | ***** (a fold increase >1.65 is indicated by five stars (*****)) |
| COc1ccc(-c2cc(=O)n3cc(N4CCN[C@@H](C)C4)cc(C)c3n2)cc1OC [Compound 142, 2-(3,4-dimethoxyphenyl)-9-methyl-7-[(3S)-3-methylpiperazin-1-yl]-4H-pyrido[1,2-a]pyrimidin-4-one] | 176 to 182 °C | 0.3 to 1 µM | – | *** (a fold increase between >1.35 and ≤1.5 is indicated by three stars (***)) |
| COc1ccc(-c2cc(=O)n3cc(N4CC[C@H](N(C)C)C4)ccc3n2)cc1OC [Compound 147, 2-(3,4-dimethoxyphenyl)-7-[(3S)-3-(dimethylamino)pyrrolidin-1-yl]-4H-pyrido[1,2-a]pyrimidin-4-one] | 156 to 158 °C | 1 to 3 µM | – | * (A maximum fold increase of ≤1.2 is indicated by one star (*)) |
| COc1ccc(-c2cc(=O)n3cc(N4CCC(N(C)C)CC4)ccc3n2)cc1OC [Compound 148, 2-(3,4-dimethoxyphenyl)-7-[4-(dimethylamino)piperidin-1-yl]-4H-pyrido[1,2-a]pyrimidin-4-one] | 158 to 161 °C | 0.1 to 0.3 µM | ** (an EC1.5× between >1 μM and ≤3 μM is indicated by two stars (**)) | *** (a fold increase between >1.35 and ≤1.5 is indicated by three stars (***)) |
| N#Cc1cccc(-c2cc(=O)n3cc(N4CCNCC4)ccc3n2)c1 [Compound 150, 3-[4-oxo-7-(piperazin-1-yl)-4H-pyrido[1,2-a]pyrimidin-2-yl]benzonitrile] | 224 to 231 °C | 0.3 to 1 µM | ** (an EC1.5× between >1 μM and ≤3 μM is indicated by two stars (**)) | **** (a fold increase between >1.5 and ≤1.65 is indicated by four stars (****)) |
| COc1ccc(-c2cc(=O)n3cc(N4CCNCC4)ccc3n2)cc1C#N [Compound 151, 2-methoxy-5-[4-oxo-7-(piperazin-1-yl)-4H-pyrido[1,2-a]pyrimidin-2-yl]benzonitrile] | 191 to 197 °C | 0.1 to 0.3 µM | – | *** (a fold increase between >1.35 and ≤1.5 is indicated by three stars (***)) |
| Cc1nc2cc(-c3cc(=O)n4cc(N5CCNCC5)ccc4n3)ccc2o1 [Compound 155, 2-(2-methyl-1,3-benzoxazol-5-yl)-7-(piperazin-1-yl)-4H-pyrido[1,2-a]pyrimidin-4-one] | 178 to 183 °C | 0.1 to 0.3 µM | – | ** (a fold increase between >1.2 and ≤1.35 is indicated by two stars (**)) |
| Cc1ccc(-c2cc(=O)n3cc(N4CCNCC4)ccc3n2)cc1F [Compound 157, 2-(3-fluoro-4-methylphenyl)-7-(piperazin-1-yl)-4H-pyrido[1,2-a]pyrimidin-4-one] | 174 to 176 °C | 1 to 3 µM | – | ** (a fold increase between >1.2 and ≤1.35 is indicated by two stars (**)) |
| Cc1ccc(-c2cc(=O)n3cc(N4CCN[C@@H](C)C4)ccc3n2)cc1F [Compound 158, 2-(3-fluoro-4-methylphenyl)-7-[(3S)-3-methylpiperazin-1-yl]-4H-pyrido[1,2-a]pyrimidin-4-one] | 175 to 178 °C | 1 to 3 µM | – | * (A maximum fold increase of ≤1.2 is indicated by one star (*)) |

Continued, in another order:

| melting point | SMILES | EC (1.5-fold increase) [1] | EC1.5x for Smn protein expression [2] | maximum fold (Fold) increase of Smn protein [2] |
| --- | --- | --- | --- | --- |
| 191 to 193 °C | Cc1nc2ccc(-c3cc(=O)n4cc(N5CCN[C@@H](C)C5)ccc4n3)cc2o1 [Compound 134, 2-(2-methyl-1,3-benzoxazol-6-yl)-7-[(3S)-3-methylpiperazin-1-yl]-4H-pyrido[1,2-a]pyrimidin-4-one] | < 0.1 µM | **** (an EC1.5x≤0.3 μM is indicated by four stars (****)) | ***** (a fold increase >1.65 is indicated by five stars (*****)) |
| 168 to 170 °C | COc1cc(F)cc(-c2cc(=O)n3cc(N4CCNCC4)ccc3n2)c1 [Compound 139, 2-(3-fluoro-5-methoxyphenyl)-7-(piperazin-1-yl)-4H-pyrido[1,2-a]pyrimidin-4-one] | 1 to 3 µM | – | *** (a fold increase between >1.35 and ≤1.5 is indicated by three stars (***)) |
| 154 to 156 °C | COc1cc(F)cc(-c2cc(=O)n3cc(N4CCN[C@@H](C)C4)ccc3n2)c1 [Compound 140, 2-(3-fluoro-5-methoxyphenyl)-7-[(3S)-3-methylpiperazin-1-yl]-4H-pyrido[1,2-a]pyrimidin-4-one] | 1 to 3 µM | – | *** (a fold increase between >1.35 and ≤1.5 is indicated by three stars (***)) |
| 270 to 274 °C | Cc1cn2cc(-c3cc(=O)n4cc(N5CCNCC5)ccc4n3)cc(C)c2n1 [Compound 141, 2-(2,8-dimethylimidazo[1,2-a]pyridin-6-yl)-7-(piperazin-1-yl)-4H-pyrido[1,2-a]pyrimidin-4-one] | < 0.1 µM | **** (an EC1.5x≤0.3 μM is indicated by four stars (****)) | ***** (a fold increase >1.65 is indicated by five stars (*****)) |
| 202 to 204 °C | COc1ccc(-c2cc(=O)n3cc(N4CCN(O)CC4)ccc3n2)cc1OC [Compound 146, 2-(3,4-dimethoxyphenyl)-7-(4-hydroxypiperazin-1-yl)-4H-pyrido[1,2-a]pyrimidin-4-one] | 1 to 3 µM | – | * (A maximum fold increase of ≤1.2 is indicated by one star (*)) |
| 198 to 203 °C | COc1ccc(-c2cc(=O)n3cc(N4CCNCC4)ccc3n2)cc1C [Compound 149, 2-(4-methoxy-3-methylphenyl)-7-(piperazin-1-yl)-4H-pyrido[1,2-a]pyrimidin-4-one] | 0.3 to 1 µM | – | ** (a fold increase between >1.2 and ≤1.35 is indicated by two stars (**)) |
| 259 to 266 °C | O=c1cc(-c2ccc(O)c(F)c2)nc2ccc(N3CCNCC3)cn12 [Compound 152, 2-(3-fluoro-4-hydroxyphenyl)-7-(piperazin-1-yl)-4H-pyrido[1,2-a]pyrimidin-4-one] | 0.1 to 0.3 µM | **** (an EC1.5x≤0.3 μM is indicated by four stars (****)) | ***** (a fold increase >1.65 is indicated by five stars (*****)) |
| 198 to 201 °C | O=c1cc(-c2ccc(OCC(F)(F)F)c(F)c2)nc2ccc(N3CCNCC3)cn12 [Compound 154, 2-[3-fluoro-4-(2,2,2-trifluoroethoxy)phenyl]-7-(piperazin-1-yl)-4H-pyrido[1,2-a]pyrimidin-4-one] | 1 to 3 µM | – | * (A maximum fold increase of ≤1.2 is indicated by one star (*)) |
